In EP3884963A1, “NAPROXEN/DEXAMETHASONE-BASED NANOPARTICLES” (Consejo Superior de Investigaciones Científicas (CSIC), priority 2020, dated 2021):

System: RAW264.7 macrophages
Test: In vitro viability assay of NPs (AlamarBlue)
Assay type: cell-based, murine
Settings: RAW264.7, 24 h, all concentrations tested (NPs 0.011-0.25 mg/ml; free Dx at the concentration encapsulated); % respect to the control
Description: The RAW264.7 (murine macrophages) cell line was purchased from Sigma-Aldrich. RAW264.7 cells are an in vitro model useful to test the potential anti-inflammatory activity of new drugs. Cells were maintained over permissive conditions in high-glucose Dulbecco's modified Eagle's medium (DMEM; Sigma, Saint Louis, MO, USA) supplemented with 10% fetal bovine serum (FBS; Gibco, BRL), 2% L-Glutamine (Sigma, Saint Louis, MO, USA) and Penicillin-G (Sigma, Saint Louis, MO, USA) at 37 °C in a humidified incubator with 10% CO2.
2 x 10^5 live cells/mL (100 µL per well) were seeded in a 96 well-plate under permissive conditions. After 24 h, cells were exposed to different concentrations of free Dx and Dx-loaded or unloaded NSAID-based NPs suspension (0.25, 0.125, 0.09, 0.045, 0.023 and, 0.011 mg/ml) and cell viability was determined after 24 h of incubation with NPs. AlamarBlue (Invitrogen) was used to determine cell viability. Absorbance at 570 nm was measured by a Multi-Detection Microplate Reader Synergy HT (BioTek Instruments; Vermont, USA). The treatments were done in replicates (n = 8). Results of the experiments were expressed as percentage of relative cell viability (% respect to the control).

## C[C@@H]1C[C@H]2[C@@H]3CCC4=CC(=O)C=C[C@]4(C)[C@@]3(F)[C@@H](O)C[C@]2(C)[C@@]1(O)C(=O)CO [free Dx, Dexamethasone]
  cell viability: higher than 70%
